In US12509462B2, “3-(phenylsulfonyl)-[1,2,3]triazolo[1,5A]quinazolin-5(4H)-one derivatives” (BIOVERSYS AG, priority 2018, dated 2025):
Converted amounts (≈) assume the structure as drawn.

Tests used:
MRSA = experiment: MIC by broth microdilution in CA-MHB (CLSI); conditions: Staphylococcus aureus, 18 h, read-out: MIC on MRSA
HepG2 = conditions: human, 48 h
[1] = test system: Staphylococcus aureus MRSA strain (USA300 isolate); experiment: Hemolysis Assay II (exotoxin-mediated lysis of rabbit red blood cells by culture filtrate); format: cell-based; conditions: Erythrocyte; for minimal effective concentration / IC95: 18 h; for minimal effective concentration: absorbance <2× the average of the complete inhibition control, read-out: Hemolysis assay II MEC (minimal effective concentration); for IC95: read-out: Hemolysis assay II IC95; for IC50: 18 h culture in CA-MHB, rabbit red blood cells

MIC (MRSA)	Structure (SMILES)	LD50 HepG2 (HepG2)	minimal effective concentration [1]	IC95 [1]	IC50 [1]
≥ 100 µM	Cc1ccc(S(=O)(=O)c2nnn3c2[nH]c(=O)c2ccc(C#N)cc23)c(C)c1 [Compound 6, 3-(2,4-dimethylphenyl)sulfonyl-5-oxo-4H-triazolo[1,5-a]quinazoline-8-carbonitrile]	>=100 μM	–	–	–
25 µM (≈ 10.1 µg/mL)	CC(C)c1ccc(S(=O)(=O)c2nnn3c2[nH]c(=O)c2cccc(Cl)c23)cc1 [Compound 9, 9-chloro-3-(4-isopropylphenyl)sulfonyl-4H-triazolo[1,5-a]quinazolin-5-one]	25 µM	–	–	–
≥ 100 µM	COc1ccc2c(=O)[nH]c3c(S(=O)(=O)c4ccc(C)cc4OC)nnn3c2c1 [Compound 10, 8-methoxy-3-(2-methoxy-4-methyl-phenyl)sulfonyl-4H-triazolo[1,5-a]quinazolin-5-one]	>=100 μM	–	–	–
≥ 100 µM	COc1ccc2c(=O)[nH]c3c(S(=O)(=O)c4ccc(OC(C)C)cc4C)nnn3c2c1 [Compound 11, 3-(4-isopropoxy-2-methyl-phenyl)sulfonyl-8-methoxy-4H-triazolo[1,5-a]quinazolin-5-one]	>=100 μM	–	–	–
≥ 100 µM	COc1ccc2c(=O)[nH]c3c(S(=O)(=O)c4ccc(Br)cc4C)nnn3c2c1 [Compound 13, 3-(4-bromo-2-methyl-phenyl)sulfonyl-8-methoxy-4H-triazolo[1,5-a]quinazolin-5-one]	>=100 μM	–	–	–
≥ 100 µM	COc1ccc2c(=O)[nH]c3c(S(=O)(=O)c4ccc(C)cc4F)nnn3c2c1 [Compound 14, 3-(2-fluoro-4-methyl-phenyl)sulfonyl-8-methoxy-4H-triazolo[1,5-a]quinazolin-5-one]	>=100 μM	–	–	–
≥ 100 µM	COc1ccc(S(=O)(=O)c2nnn3c2[nH]c(=O)c2ccc(OC)cc23)c(C)c1 [Compound 15, 8-methoxy-3-(4-methoxy-2-methyl-phenyl)sulfonyl-4H-triazolo[1,5-a]quinazolin-5-one]	>=100 μM	–	–	–
≥ 100 µM	COc1ccc2c(=O)[nH]c3c(S(=O)(=O)c4ccc(NC(C)=O)cc4C)nnn3c2c1 [Compound 16, N-[4-[(8-methoxy-5-oxo-4H-triazolo[1,5-a]quinazolin-3-yl)sulfonyl]-3-methyl-phenyl]acetamide]	>=100 μM	–	–	–
≥ 100 µM	COc1ccc2c(=O)[nH]c3c(S(=O)(=O)c4ccc(F)cc4C)nnn3c2c1 [Compound 17, 3-(4-fluoro-2-methyl-phenyl)sulfonyl-8-methoxy-4H-triazolo[1,5-a]quinazolin-5-one]	>=100 μM	–	–	–
≥ 100 µM	COc1ccc2c(=O)[nH]c3c(S(=O)(=O)c4ccc(OC(F)(F)F)cc4C)nnn3c2c1 [Compound 19, 8-methoxy-3-[2-methyl-4-(trifluoromethoxy)phenyl]sulfonyl-4H-triazolo[1,5-a]quinazolin-5-one]	>=100 μM	–	–	–
≥ 100 µM	COc1ccc2c(=O)[nH]c3c(S(=O)(=O)c4ccc(Cl)cc4C)nnn3c2c1 [Compound 20, 3-(4-chloro-2-methyl-phenyl)sulfonyl-8-methoxy-4H-triazolo[1,5-a]quinazolin-5-one]	>=100 μM	–	–	–
≥ 100 µM	COc1ccc2c(=O)[nH]c3c(S(=O)(=O)c4ccc(C#N)cc4C)nnn3c2c1 [Compound 22, 4-[(8-methoxy-5-oxo-4H-triazolo[1,5-a]quinazolin-3-yl)sulfonyl]-3-methyl-benzonitrile]	>=100 μM	–	–	–
≥ 100 µM	COc1ccc2c(=O)[nH]c3c(S(=O)(=O)c4ccc(C(=O)O)cc4C)nnn3c2c1 [Compound 23, 4-[(8-methoxy-5-oxo-4H-triazolo[1,5-a]quinazolin-3-yl)sulfonyl]-3-methyl-benzoic acid]	>=100 μM	–	–	–
≥ 100 µM	CCOC(=O)c1ccc(S(=O)(=O)c2nnn3c2[nH]c(=O)c2ccc(OC)cc23)c(C)c1 [Compound 24, ethyl 4-[(8-methoxy-5-oxo-4H-triazolo[1,5-a]quinazolin-3-yl)sulfonyl]-3-methyl-benzoate]	>=100 μM	–	–	–
≥ 100 µM	COc1ccc2c(=O)[nH]c3c(S(=O)(=O)c4ccc(C(F)(F)F)cc4)nnn3c2c1 [Compound 25, 8-methoxy-3-[4-(trifluoromethyl)phenyl]sulfonyl-4H-triazolo[1,5-a]quinazolin-5-one]	>=100 μM	–	–	–
≥ 100 µM	COc1ccc2c(=O)[nH]c3c(S(=O)(=O)c4ccc(C#N)cc4)nnn3c2c1 [Compound 29, 4-[(8-methoxy-5-oxo-4H-triazolo[1,5-a]quinazolin-3-yl)sulfonyl]benzonitrile]	>=100 μM	–	–	–
≥ 100 µM	COc1ccc2c(c1)c(=O)[nH]c1c(S(=O)(=O)c3ccc(C)cc3C)nnn12 [Compound 30, 3-(2,4-dimethylphenyl)sulfonyl-7-methoxy-4H-triazolo[1,5-a]quinazolin-5-one]	>=100 μM	–	–	–
≥ 100 µM	COc1ccc2c(=O)[nH]c3c(S(=O)(=O)c4ccc(-c5nn[nH]n5)cc4C)nnn3c2c1 [Compound 31, 8-methoxy-3-[2-methyl-4-(2H-tetrazol-5-yl)phenyl]sulfonyl-4H-triazolo[1,5-a]quinazolin-5-one]	>=100 μM	–	–	–
≥ 100 µM	COc1ccc2c(=O)[nH]c3c(S(=O)(=O)c4ccc(C(N)=O)cc4C)nnn3c2c1 [Compound 32, 4-[(8-methoxy-5-oxo-4H-triazolo[1,5-a]quinazolin-3-yl)sulfonyl]-3-methyl-benzamide]	>=100 μM	–	–	–
≥ 100 µM	COc1ccc2c(=O)[nH]c3c(S(=O)(=O)c4ccc(-c5nnc(C)[nH]5)cc4C)nnn3c2c1 [Compound 33, 8-methoxy-3-[2-methyl-4-(5-methyl-4H-1,2,4-triazol-3-yl)phenyl]sulfonyl-4H-triazolo[1,5-a]quinazolin-5-one]	>=100 μM	–	–	–
≥ 100 µM	Cc1ccc(S(=O)(=O)c2nnn3c2[nH]c(=O)c2ccc(OCC#N)cc23)c(C)c1 [Compound 54, 2-[[3-(2,4-dimethylphenyl)sulfonyl-5-oxo-4H-triazolo[1,5-a]quinazolin-8-yl]oxy]acetonitrile]	>=100 μM	–	–	–
≥ 100 µM	Cc1ccc(S(=O)(=O)c2nnn3c2[nH]c(=O)c2ccc(OCCCC(N)=O)cc23)c(C)c1 [Compound 56, 4-[[3-(2,4-dimethylphenyl)sulfonyl-5-oxo-4H-triazolo[1,5-a]quinazolin-8-yl]oxy]butanamide]	>=100 μM	–	–	–
≥ 100 µM	COc1cc2c(=O)[nH]c3c(S(=O)(=O)c4ccc(C)cc4C)nnn3c2cc1O [Compound 57, 3-(2,4-dimethylphenyl)sulfonyl-8-hydroxy-7-methoxy-4H-triazolo[1,5-a]quinazolin-5-one]	>=100 μM	–	–	–
≥ 100 µM	Cc1ccc(S(=O)(=O)c2nnn3c2[nH]c(=O)c2cc(O)c(OCCO)cc23)c(C)c1 [Compound 61, 3-(2,4-dimethylphenyl)sulfonyl-7-hydroxy-8-(2-hydroxyethoxy)-4H-triazolo[1,5-a]quinazolin-5-one]	>=100 μM	–	–	–

Structure (SMILES)	MIC (MRSA)	LD50 HepG2 (HepG2)	minimal effective concentration [1]	IC95 [1]	IC50 [1]
Cc1ccc(S(=O)(=O)c2nnn3c2[nH]c(=O)c2cc(Cl)ccc23)c(C)c1 [Compound 1, 7-chloro-3-(2,4-dimethylphenyl)sulfonyl-4H-triazolo[1,5-a]quinazolin-5-one]	≥ 100 µM	>=100 μM	4 µg/mL	2.95 µg/mL (≈ 7.59 µM)	1.1 µg/mL (≈ 2.83 µM)
Cc1ccc(S(=O)(=O)c2nnn3c2[nH]c(=O)c2c(Cl)cccc23)c(C)c1 [Compound 2, 6-chloro-3-(2,4-dimethylphenyl)sulfonyl-4H-triazolo[1,5-a]quinazolin-5-one]	≥ 100 µM	>=100 μM	2 µg/mL	2.5 µg/mL (≈ 6.43 µM)	0.85 µg/mL (≈ 2.19 µM)
Cc1ccc(S(=O)(=O)c2nnn3c2[nH]c(=O)c2cccc(Cl)c23)c(C)c1 [Compound 4, 9-chloro-3-(2,4-dimethylphenyl)sulfonyl-4H-triazolo[1,5-a]quinazolin-5-one]	≥ 100 µM	50 µM	8 µg/mL	5.2 µg/mL (≈ 13.4 µM)	2.3 µg/mL (≈ 5.92 µM)
Cc1ccc(S(=O)(=O)c2nnn3c2[nH]c(=O)c2ccc(F)cc23)c(C)c1 [Compound 7, 3-(2,4-dimethylphenyl)sulfonyl-8-fluoro-4H-triazolo[1,5-a]quinazolin-5-one]	≥ 100 µM	>=100 μM	4 µg/mL	4.8 µg/mL (≈ 12.9 µM)	1.7 µg/mL (≈ 4.57 µM)
CC(C)c1ccc(S(=O)(=O)c2nnn3c2[nH]c(=O)c2c(Cl)cccc23)cc1 [Compound 8, 6-chloro-3-(4-isopropylphenyl)sulfonyl-4H-triazolo[1,5-a]quinazolin-5-one]	≥ 100 µM	>=100 μM	4 µg/mL	3.8 µg/mL (≈ 9.43 µM)	2.2 µg/mL (≈ 5.46 µM)
COc1ccc2c(=O)[nH]c3c(S(=O)(=O)c4ccc(C5CC5)cc4)nnn3c2c1 [Compound 21, 3-(4-cyclopropylphenyl)sulfonyl-8-methoxy-4H-triazolo[1,5-a]quinazolin-5-one]	≥ 100 µM	>=100 μM	4 µg/mL	3.4 µg/mL (≈ 8.58 µM)	1.5 µg/mL (≈ 3.78 µM)
COc1ccc2c(=O)[nH]c3c(S(=O)(=O)c4ccc(C5CC5)cc4C)nnn3c2c1 [Compound 27, 3-(4-cyclopropyl-2-methyl-phenyl)sulfonyl-8-methoxy-4H-triazolo[1,5-a]quinazolin-5-one]	≥ 100 µM	>=100 μM	2 µg/mL	1.9 µg/mL (≈ 4.63 µM)	0.15 µg/mL (≈ 0.365 µM)
CCc1ccc(S(=O)(=O)c2nnn3c2[nH]c(=O)c2ccc(OC)cc23)c(C)c1 [Compound 28, 3-(4-ethyl-2-methyl-phenyl)sulfonyl-8-methoxy-4H-triazolo[1,5-a]quinazolin-5-one]	≥ 100 µM	>=100 μM	8 µg/mL	4.5 µg/mL (≈ 11.3 µM)	2 µg/mL (≈ 5.02 µM)
